{"source": "paper PMC6304572", "about": "“Simultaneous Evaluation of the Influence of Panax ginseng on the Pharmacokinetics of Three Diester Alkaloids after Oral Administration of Aconiti Lateralis Radix in Rats Using UHPLC/QQQ-MS/MS” (Evidence-based Complementary and Alternative Medicine : eCAM, 2018)", "key": {"[1]": {"assay": "Stability of the three alkaloids in rat plasma QC samples (4°C, room temperature, freeze-thaw)", "format": "in vitro ADME", "conditions": "for Freeze-thaw Accuracy: freeze-thaw three times; for Room temperature stability (24 h) Accuracy: room temperature (about 25°C)", "procedure": "Plasma from rats without any processing was used to evaluate the detection methods. 0.1, 0.25, 0.5, 1, 2.5, 5, 10 ng/ml were chosen to calculate standards curve. 0.1, 0.4, 4, 8 ng/mL were selected as the QC sample (n = 4) with repeated operations used to calculate accuracy and precision of the detection method. The data was acquired after keeping the samples at either +4°C 24 hours or room temperature (about 25°C) for 24 hours as well as using freeze-thaw methods (three times) to evaluate stability. Recovery of the developed methods was calculated by the following formula: recovery = measured value/ theoretical value × 100%."}, "[2]": {"assay": "Pharmacokinetics of three diester alkaloids in rat plasma after oral Aconiti Lateralis Radix extract, with or without 7-day P. ginseng pretreatment", "format": "in vivo, Sprague-Dawley rats", "conditions": "oral Aconiti Lateralis Radix extract 1 g/kg on 8th day", "procedure": "Rats were randomly divided into 4 groups: control group, P. ginseng (low, middle, and high) group. 7 days of oral administration of P. ginseng extract was administered at a dosage of 0.1, 1, 10 g/kg for P. ginseng group (low, middle, and high), respectively, once daily. Distilled water was administered at a dosage of 2 ml/kg for control group, simultaneously. On the 8th day, Aconiti Lateralis Radix extracts (1 g/kg) were orally administered to all groups. 0.5 ml plasma samples were collected in 1.5 ml centrifuge tubes (containing heparin sodium) at 10, 30, 60, 90, 120, 240, 480, 720, 1440, and 2880 min. All plasma samples were centrifuged for 15 min at 4000g. The supernatant was separated to another 1.5 ml centrifuge tubes and stored at -20°C.\nLiquid-liquid extraction (ethyl acetate) and protein precipitation (50% acetonitrile plus 50% methanol) methods were compared to determine the best method to prepare the plasma sample. Liquid-liquid extraction method was chosen, due to reproducibly high recovery rates. The details of the extraction are as follows: 10 μL carbamazepine (IS) was added to 90 μL plasma, spiked with 400 μL ethyl acetate and the mixture vortexed for 15 seconds. After centrifugation at 12,000g for 10 min, the supernatant was transferred to another 1.5 mL centrifuge tube and dried under a stream of nitrogen at 37°C. The residue was redissolved in 100 μL 50% acetonitrile and centrifuged at 12,000g for 10 min and filtered through a 0.22 μm Micropore membrane. A 5 μL volume of supernatant was injected into LC-MS system for analysis.\nXevo TQ-S (Waters, USA) was utilized for the analysis of all biological samples. Chromatographic separation was conducted on Waters ACQUITY UPLC HSS T3 1.8 μm column (2.1 mm × 100 mm). Column temperature was 45°C and the flow rate was 0.5ml/min. Room temperature was 20 ± 2°C. Phase A consisted of water and 0.1% formic acid (v/v), and phase B consisted of acetonitrile (ACN) 0.1% formic acid (v/v). Column separation was performed by gradient elution: 0-0.5 min, 10% B; 1-2 min, 90% B; 4 min, 10% B.\nElectrospray ionization (ESI) and positive ion V mode were used to determine the samples. The main parameters for mass spectrum were set as follows: capillary voltage: 3.5 kv; sample cone: 60 v; source offset: 50 v; source temperature: 150°C; desolvation temperature: 350°C; cone gas flow: 150 L/h; desolvation gas flow: 650 L/h; injection volume: 5 μL.\nThe data was acquired and analyzed by XEVO-QT-S (Waters). The pharmacokinetic parameters were analyzed by DAS pharmacokinetic program (Version 2.0). SAS statistical software was used to determine the difference between each group. All data was presented as mean ± SD, and P<0.05 was considered statistically significant."}, "[3]": {"conditions": "P. ginseng-high (10 g/kg oral, 7 days)"}, "[4]": {"conditions": "P. ginseng-low (0.1 g/kg oral, 7 days)"}, "[5]": {"conditions": "P. ginseng-middle (1 g/kg oral, 7 days)"}, "[6]": {"conditions": "control group (distilled water 7 days)"}}}
{"smiles": "COC[C@]12CN(C)[C@@H]3[C@@H]4[C@H](OC)[C@H]1[C@@]3([C@@H](OC)C[C@H]2O)[C@@H]1C[C@@]2(O)[C@H](OC(=O)c3ccccc3)[C@@H]1[C@]4(OC(C)=O)[C@@H](O)[C@@H]2OC", "note": "[Mesaconitine]", "values": [{"measurement": "4°C temperature stability (24 h) Accuracy", "setting": "[1]; QC conc. 0.40 ng/mL", "value": "100.28 ± 8.73", "unit": "%"}, {"measurement": "Freeze-thaw Accuracy", "setting": "[1]; QC conc. 0.40 ng/mL", "value": "95.09 ± 7.31", "unit": "%"}, {"measurement": "Room temperature stability (24 h) Accuracy", "setting": "[1]; QC conc. 0.40 ng/mL", "value": "96.34 ± 6.95", "unit": "%"}, {"measurement": "4°C temperature stability (24 h) Accuracy", "setting": "[1]; QC conc. 4.00 ng/mL", "value": "97.02 ± 9.18", "unit": "%"}, {"measurement": "Freeze-thaw Accuracy", "setting": "[1]; QC conc. 4.00 ng/mL", "value": "100.37 ± 8.92", "unit": "%"}, {"measurement": "Room temperature stability (24 h) Accuracy", "setting": "[1]; QC conc. 4.00 ng/mL", "value": "93.68 ± 2.77", "unit": "%"}, {"measurement": "4°C temperature stability (24 h) Accuracy", "setting": "[1]; QC conc. 8.00 ng/mL", "value": "99.43 ± 4.57", "unit": "%"}, {"measurement": "Freeze-thaw Accuracy", "setting": "[1]; QC conc. 8.00 ng/mL", "value": "99.59 ± 3.35", "unit": "%"}, {"measurement": "Room temperature stability (24 h) Accuracy", "setting": "[1]; QC conc. 8.00 ng/mL", "value": "100.72 ± 4.78", "unit": "%"}, {"measurement": "AUC(0-t)", "setting": "[2]; [3]", "value": "126.07 ± 44.93^∗∗ μg/L∗h"}, {"measurement": "AUC(0-∞)", "setting": "[2]; [3]", "value": "138.96 ± 55.36^∗∗ μg/L∗h"}, {"measurement": "CLz/F", "setting": "[2]; [3]", "value": "81.37 ± 29.62^∗∗ L/h/Kg"}, {"measurement": "Cmax", "setting": "[2]; [3]", "value": "8.94 ± 2.33^∗ μg/L"}, {"measurement": "Tmax", "setting": "[2]; [3]", "value": "2.20 ± 1.98", "unit": "h"}, {"measurement": "Vz/F", "setting": "[2]; [3]", "value": "1395.19 ± 472.75^∗∗ L/kg"}, {"measurement": "t1/2z", "setting": "[2]; [3]", "value": "12.56 ± 4.48", "unit": "h"}, {"measurement": "AUC(0-t)", "setting": "[2]; P. ginseng-high (10 g/kg oral, 7 days), listed as mesaconitine", "value": "126.07 ± 44.93", "unit": "μg/L∗h"}, {"measurement": "AUC(0-t)", "setting": "[2]; [4]", "value": "65.53 ± 9.06", "unit": "μg/L∗h"}, {"measurement": "AUC(0-∞)", "setting": "[2]; [4]", "value": "71.36 ± 12.85", "unit": "μg/L∗h"}, {"measurement": "CLz/F", "setting": "[2]; [4]", "value": "144.13 ± 26.77", "unit": "L/h/kg"}, {"measurement": "Cmax", "setting": "[2]; [4]", "value": "4.66 ± 1.03", "unit": "µg/L"}, {"measurement": "Tmax", "setting": "[2]; [4]", "value": "0.89 ± 0.60", "unit": "h"}, {"measurement": "Vz/F", "setting": "[2]; [4]", "value": "2386.47 ± 832.39", "unit": "L/kg"}, {"measurement": "t1/2z", "setting": "[2]; [4]", "value": "12.12 ± 6.11", "unit": "h"}, {"measurement": "AUC(0-t)", "setting": "[2]; [5]", "value": "82.45 ± 18.57^∗ μg/L∗h"}, {"measurement": "AUC(0-∞)", "setting": "[2]; [5]", "value": "87.1 ± 21.80^∗ μg/L∗h"}, {"measurement": "CLz/F", "setting": "[2]; [5]", "value": "120.75 ± 29.09^∗ L/h/Kg"}, {"measurement": "Cmax", "setting": "[2]; [5]", "value": "6.02 ± 1.63", "unit": "µg/L"}, {"measurement": "Tmax", "setting": "[2]; [5]", "value": "1.83 ± 1.21", "unit": "h"}, {"measurement": "Vz/F", "setting": "[2]; [5]", "value": "1745.91 ± 488.37^∗ L/kg"}, {"measurement": "t1/2z", "setting": "[2]; [5]", "value": "10.31 ± 3.00", "unit": "h"}, {"measurement": "AUC(0-t)", "setting": "[2]; P. ginseng-middle (1 g/kg oral, 7 days), listed as mesaconitine", "value": "82.45 ± 18.57", "unit": "μg/L∗h"}, {"measurement": "AUC(0-t)", "setting": "[2]; [6]", "value": "51.24 ± 21.48", "unit": "μg/L∗h"}, {"measurement": "AUC(0-∞)", "setting": "[2]; [6]", "value": "58.66 ± 27.59", "unit": "μg/L∗h"}, {"measurement": "CLz/F", "setting": "[2]; [6]", "value": "217.47 ± 130.54", "unit": "L/h/kg"}, {"measurement": "Cmax", "setting": "[2]; [6]", "value": "5.48 ± 2.61", "unit": "µg/L"}, {"measurement": "Tmax", "setting": "[2]; [6]", "value": "1.58 ± 1.32", "unit": "h"}, {"measurement": "Vz/F", "setting": "[2]; [6]", "value": "3146.87 ± 1886.84", "unit": "L/kg"}, {"measurement": "t1/2z", "setting": "[2]; [6]", "value": "13.17 ± 10.45", "unit": "h"}]}
